Experimental data as given in patent US20210353706A1, “INHIBITION OF ENDOGENOUS REVERSE TRANSCRIPTASE AND TARGETING OF CELLS FOR PROPHYLAXIS AND THERAPY OF CANCER AND AGING” (Health Research, Inc., priority 2017, published 2021).

How the values were obtained:
[1] = tested on: colorectal cancer cells HCT116; test: Acquisition of PALA-resistant colonies (CAD gene amplification); assay type: cell-based, human; settings: for number of PALA resistant colonies: HCT116 grown in presence of indicated non-toxic concentrations of RT inhibitor
Excerpt: Gene amplification can be assessed by measuring the frequency of occurrence of cell variants resistant to N-phosphonoacetyl-L-aspartate (PALA), a small molecule inhibitor of aspartate transcarbamylase of CAD protein essential for UMP biosynthesis. In human cells, PALA resistance is associated almost solely with CAD overexpression due to amplification of the CAD gene. Therefore, this can serve as a quantitative indicator of gene amplification. Usually undetectable in normal cells, gene amplification frequency can be as high as 10-5 in tumor cells. The finding that p53 inactivation and DNA demethylation by decitabine both greatly increase the frequency of gene amplification support the possibility of involvement of retroelements (which are inhibited at the epigenetic level by p53 and DNA methylation) in this process.
Right panel illustrates the data shown in the graph as images of tissue culture plates treated and untreated with RT inhibitors in the presence and in the absence of PALA. Sensitivity of HCT116 cells to RT inhibitors alone were determined using quantitation of adherent cells following 72 hours of incubation in the presence of a range of concentrations of RT inhibitors (curves in the graph with the scale of cell viability shown on the right).

[2] = tested on: HeLa cells; test: Clonogenicity of HeLa cells; assay type: cell-based; settings: indicated concentrations of stavudine
[3] = tested on: LINE1 elements; test: LINE1 retrotransposition assay (neo-resistant colonies after reporter plasmid transfection); assay type: cell-based; settings: HeLa cells transfected with reporter plasmid
Description: FIG. 2 depicts a work-flow for a LINE1 retrotransposition assay as described in Moran et al. Cell 1996 87(5):917-27 (shown in box to the left).
Retrotransposition assay was performed according to Moran et al. Cell. 1996 87(5):917-27 (scheme shown to the left). HeLa cells were transfected with the reporter plasmid; appearance of neo-resistant colonies is indicative of retrotransposition events. […] It is accordingly expected that other RT inhibitors will have similar utility.

[4] = tested on: Th-MYCN transgenic mice (spontaneous neuroblastomas); test: Tumor relapse after chemotherapy in mouse spontaneous neuroblastoma model; assay type: in vivo
Excerpt: In particular, 100% of Th-MYCN transgenic mice (strain 129X1/SvJ-Tg(TH-MYCN)41Waw/Nci) homozygous for MYCN transgene develop spontaneous neuroblastomas in their abdomens around 30 days of age. Mice carrying this transgene show many of the features of the human childhood disease including sensitivity to conventional treatments. Indicated treatments were started at the times of first appearance of palpable tumors.

## Cc1cn([C@H]2C=C[C@@H](CO)O2)c(=O)[nH]c1=O [stavudine]
[1]
  number of PALA resistant colonies: greatly decreased
[1]; listed as STV
  number of PALA resistant colonies: dramatically reduces
[1]; tumor cells in vitro
  frequency of gene amplification in vitro: greatly reduced
[2]
  effect on clonogenicity of HeLa cells: lack of effect
[3]
  concentrations at which stavudine is effective in inhibiting LINE1 retrotransposition: above 5 mM
[4]; 1.5 mg/ml in drinking water, no chemotherapy
  antitumor effect of stavudine alone: no detectable antitumor effect
[4]; continuous stavudine 1.5 mg/ml in drinking water with cyclophosphamide and topotecan
  extension of average tumor-free survival: nearly two-fold
[4]; continuous stavudine with cyclophosphamide and topotecan
  proportion of disease free animals with no relapses detected within >100 days of observation: significantly increased
